For 14 compounds, TGI and GI50 results are on record in PubChem BioAssay (NCI).

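Tested at 5 concentrations; 48 h exposure; 96-well plates; endpoints linearly interpolated, else capped at highest concentration. GI50 = concentration required for 50% inhibition of growth. At the TGI there is no net growth.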 Where only a bound is given, the exact number is not on record here.

What all share (assay): NCI anticancer screen, dose series, 48 h
The subject of experiment [1] is ACHN renal.
Experiment [2] concerns HCT-15 colon.
For experiment [3], the system named is HOP-92 NSCLC.
Experiment [4] has as its system NCI-H23 lung.
In experiment [5] the test system is NCI-H460 lung.
The subject of experiment [6] is RXF 393 renal.
The test system of experiment [7] is SK-MEL-28 melanoma.
The test system of experiment [8] is SNB-75 CNS.
Experiment [9] relates to SW-620 colon.
In experiment [10] the test system is NCI-H226 lung.

`Cc1ccccc1N=C(N)NC#N`: the TGI in [1], in experiment [2], in experiment [3], in [4], in experiment [5] and in experiment [6] was above 100 µM each time. Moreover, the TGI in experiment [7], in experiment [8] and in experiment [9] was above 100 µM throughout.

`C(=N\Nc1ncc(-c2cc3cc4c(cc3o2)OCO4)s1)/c1c[nH]c2ccccc12`: the GI50 in [1] is 0.86 µM; in [2], 1.14 µM; in experiment [3], 1.49 µM; in experiment [4] it was 1.77 µM; in [6], 1.33 µM; in [7], 3.17 µM. The GI50 in experiment [8] was 1.4 µM; in [9] it was 1.2 µM. Also, the TGI in experiment [1] came out at 2.61 µM; in [2], 3.25 µM; in [3], 5.34 µM; in experiment [4] it was 5.19 µM; in experiment [6] it was 2.78 µM; in [7] it was 12.2 µM. The TGI in experiment [8] amounted to 2.89 µM; in experiment [9], 3 µM.

Regarding `COc1c2occc2c(OC)c2c(=O)c(S(=O)(=O)NC(=O)Nc3ccc(Cl)cc3)coc12`, the TGI in [1], in experiment [2], in experiment [3], in [10], in [4] and in [5] was above 10 µM in each case. The TGI in experiment [6], in experiment [7] and in experiment [9] was above 10 µM each time.

In the case of `N/C(=N\N=C\c1ccc2c(c1)OCO2)NO`, the TGI in experiment [1] was 47.9 µM; in [2] it was above 100 µM; in experiment [3] it was 83.1 µM; in experiment [10] it was 40.8 µM; in experiment [4], 98.8 µM; in [5] it was above 100 µM. Further, the TGI in experiment [6], in [7] and in [9] was above 100 µM throughout.

As to `O=C1C=Cc2c(Cl)sc(Cl)c21`, the TGI in experiment [1] was determined as 3.16 µM; in [2], 3.14 µM; in [10], 16.1 µM; in [4], 5.68 µM; in [5], 45.2 µM; in [6], 4.28 µM. Further, the figures for the TGI in experiment [7] and in [8] were 3.97 µM and 13.1 µM, respectively.

`CC1CN=C(Nc2cccc(C(F)(F)F)c2)S1` (stereo unspecified): the TGI in experiment [1], in [2], in [10], in [4], in experiment [5] and in [6] was above 100 µM in each case. Further, the TGI in experiment [7] and in [8] was above 100 µM each time.

For `CC(C)(C)c1cc(C(O)(C(=O)O)C(=O)O)cc(C(C)(C)C)c1O`, the TGI in [1], in experiment [2], in experiment [3], in experiment [10], in experiment [4] and in experiment [6] was above 100 µM each time. For the same compound, the TGI in experiment [7], in experiment [8] and in [9] was above 100 µM each time.

On to `COc1ccc2c(c1)OCC1(O)Cc3ccccc3OC21` (stereo unspecified), for which the TGI in [1], in experiment [2], in experiment [3], in [10], in experiment [4] and in [8] was above 100 µM in each case. The compound further had a TGI in experiment [9] above 100 µM.

On to `C=CCOc1ccc(C2c3c([nH][nH]c3=O)CC(O)(OCC)C2C(=O)OCC)cc1OC` (stereo unspecified), for which the TGI in experiment [1], in experiment [2], in [3], in experiment [4], in [5] and in experiment [7] was above 100 µM throughout. Besides, the TGI in experiment [8] and in experiment [9] was above 100 µM throughout.

Take `Cn1ccnc1CCc1ccc(F)cc1F`: the TGI in [1], in experiment [2], in [10], in experiment [4], in experiment [5] and in experiment [6] was above 100 µM in each case. The TGI in [7], in experiment [8] and in [9] was above 100 µM in each case.

On to `C=Nc1ccc([N+](=O)[O-])cc1`, for which the TGI in experiment [1], in experiment [2], in experiment [3], in experiment [10], in experiment [4] and in experiment [5] was above 100 µM in each case. Moreover, the TGI in experiment [7], in experiment [8] and in experiment [9] was above 100 µM in each case.

In the case of `Cc1ccc(S(=O)(=O)NC(=O)NC(Cc2c[nH]c3ccccc23)C(=O)O)cc1` (stereo unspecified), the TGI in experiment [2], in [3], in experiment [4], in experiment [5], in experiment [6] and in [7] was above 100 µM throughout. Moreover, the TGI in [8] and in [9] was above 100 µM in each case.

For `O=C1NN=C(c2ccc(Cl)cc2)CC1C1C(=O)N(c2ccccc2)N=C1c1ccccc1` (stereo unspecified), the TGI in experiment [1] is above 100 µM; in experiment [2] it was above 100 µM; in experiment [10], 91.8 µM; in experiment [4], 62.8 µM; in experiment [5] it was 80.4 µM; in experiment [6], 70.9 µM. For the same compound, the TGI in experiment [7], in experiment [8] and in [9] was above 100 µM each time.

`O=C(CCc1cccc(O)c1)NCCc1cccc(O)c1`: the TGI in experiment [1], in [2], in experiment [3], in experiment [10], in experiment [4] and in [5] was above 100 µM each time. Besides, the TGI in [6] and in [7] was above 100 µM in each case.
